From patent US12486276B2, “5-(2,5-difluorophenyl)pyrrolidin-1-yl)-3-(1H-pyrazol-1-yl)pyrazolo[1,5-a]pyrimidine derivatives and related compounds as Trk kinase inhibitors for treating cancer” (Pyramid Biosciences, Inc., priority 2017, dated 2025)

target: T1, TrkA kinase domain (Homo sapiens, UniProt P04629); assay: TrkA Kinase Assay (Trk kinase biochemical assay); details: 33 pM TrkA, 100 nM peptide substrate, 10 µM ATP; 15 minute preincubation; read-out: TrkA WT IC50
T1 construct: TrkA kinase domain was supplied by SignalChem; purchased SignalChem
Experimental: Example 33: TrkA Kinase Assay Protocol
TrkA kinase domain was supplied by SignalChem. Ulight PolyGT peptide substrate and Europium labeled W1024 antiphosphotyrosine antibody were supplied by Perkin Elmer. Assay buffer contained 50 mM HEPES, 10 mM MgCb, 1 mM EGTA, 2 mM DTT, 0.1 mg/mL BSA, and 0.005% w/v tween 20, pH 7.5. Enzyme dilution buffer was made by supplementing assay buffer with 25% w/v glycerol. Antibody dilution buffer contained 20 mM Tris, 137 mM NaCl, and 0.05% w/v tween 20, pH 8.0. Buffers were prepared at room temperature. Enzyme solutions were made on ice, while other solutions were made at room temperature and all subsequent assay steps were performed at room temperature. The TrkA stock solution (0.1 mg/mL) was diluted 156× in enzyme dilution buffer and then 100× in assay buffer. Five pL/well of enzyme solution was added to the assay plate (Greiner black 384-well nonbinding plate), with buffer containing no enzyme added to negative control wells. Test compounds were serially diluted in DMSO at 300× final assay concentration. One μL of each test compound dilution was mixed with 99 pL assay buffer plus ATP (30 μM) and five pL of each test compound-ATP solution was added to w¾13s containing enzyme. Positive control wells contained enzyme and substrates but no test compounds. After a 15 minute enzyme-test compound preincubation, five pL of substrate diluted in assay buffer was added to all wells. Final assay concentrations were 33 pM TrkA, 100 nM peptide substrate, and […]. After a five minute reaction, five pL of 80 mM EDTA was added, followed five minutes later by five pL two nM antibody solution. The ratio of fluorescence at 665 nm vs. 615 nM in each well was determined using a Tecan Infinite Pro F200 plate reader. For each test compound well, percent inhibition w % s calculated (% inliib. =100-100*(test value-neg. control)/(pos. control-neg. control)). Percent inhibition values were fit to a four parameter logistic to determine ICso values for each test compound.

T1 sequence (P04629 510-781 limits assumed): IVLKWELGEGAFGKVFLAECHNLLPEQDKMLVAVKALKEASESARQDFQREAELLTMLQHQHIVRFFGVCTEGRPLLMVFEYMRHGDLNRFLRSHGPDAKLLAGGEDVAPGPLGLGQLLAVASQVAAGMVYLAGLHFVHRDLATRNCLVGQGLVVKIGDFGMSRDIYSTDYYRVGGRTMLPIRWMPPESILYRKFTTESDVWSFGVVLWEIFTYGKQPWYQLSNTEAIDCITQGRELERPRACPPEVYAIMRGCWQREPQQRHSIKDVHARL

Row | Compound | IC50
1 | COc1cncc(-c2cnn(-c3cnn4ccc(N5CCC[C@@H]5c5nc(F)ccc5F)nc34)c2)c1 [I-206, (R)-5-(2-(3,6-difluoropyridin-2-yl)pyrrolidin-t-yl)-3-(4-(5-methoxypyridin-3-yi)-1H-pyrazol-1-yl)pyrazolo[1,5-a]pyrimidine] | < 10 nM
2 | Fc1cccnc1[C@H]1CCCN1c1ccn2ncc(-n3cc(-c4ccccc4)cn3)c2n1 [I-192] | < 10 nM
3 | CN(C)S(=O)(=O)Nc1cnn(-c2cnn3ccc(N4CCC[C@@H]4c4cc(F)ccc4F)nc23)c1 [I-198, (R)—N-(1-(5-(2-(2,5-difluorophenyl)pyrrolidin-1-yl)pyrazolo[1,5-a]pyrimidin-3-yl)-1H-pyrazol-4-yl)-1,1-dimethylsulfonylurea] | < 10 nM
4 | Fc1ccc(F)c([C@H]2CCCN2c2ccn3ncc(-n4cc(C5CCOCC5)cn4)c3n2)c1 [I-187, (R)-5-(2-(2,5-difluorophenyi)pyrrolidin-1-yl)-3-(4-(tetrahydro-2H-pyran-4-yl)-1H-pyrazol-1-yl)pyrazolo[1,5-a]pyrimidine] | < 10 nM
5 | Fc1ccc(F)c([C@H]2CCCN2c2ccn3ncc(-n4cncn4)c3n2)c1 [I-168] | < 10 nM
6 | Fc1ccc(F)c([C@H]2CCCN2c2ccn3ncc(-n4cc(C5CCOC5)cn4)c3n2)c1 (stereo partly shown) [I-210] | < 10 nM
7 | Fc1ccc(F)c([C@H]2CCCN2c2ccn3ncc(-n4cccn4)c3n2)c1 [I-152, (R)-5-(2-(2,5-difluorophenyI)pyrroIidin-1-yl)-3-(1H-pyrazol-1-yl)pyrazolo[1,5-a]pyrimidine] | < 10 nM
8 | OCCc1cnn(-c2cnn3ccc(N4CCC[C@@H]4c4cc(F)ccc4F)nc23)c1 [I-156] | < 10 nM
9 | Cc1nnc(-c2cnn(-c3cnn4ccc(N5CCC[C@@H]5c5cc(F)ccc5F)nc34)c2)o1 [I-178, (R)-2-(1-(5-(2-(2,5-difluorophenyl)pyrrolidin-1-yl)pyrazolo[1,5-a]pyrimidin-3-yl)-1H-pyrazol-4-yl)-5-methyl-1,3,4-oxadiazole] | < 10 nM
10 | Fc1ccc(F)c([C@H]2CCCN2c2ccn3ncc(-n4cc(-c5cccnc5)cn4)c3n2)c1 [I-159] | < 10 nM
11 | CP(C)(=O)c1cnn(-c2cnn3ccc(N4CCC[C@@H]4c4cc(F)ccc4F)nc23)c1 [I-174, (R)-(1-(5-(2-(2,5-difluorophenyl)pyrrolidm-1-yl)pyrazolo[1,5-a]pyrimidin-3-yl)-1H-pyrazol-4-yl)dimethylphosphine-oxide] | < 10 nM
12 | Fc1ccc(F)c([C@H]2CCCN2c2ccn3ncc(-n4cc(-c5ccncc5)cn4)c3n2)n1 [I-207] | < 10 nM
13 | Fc1ccc(F)c([C@H]2CCCN2c2ccn3ncc(-n4cc(-c5cncc(OC6COC6)c5)cn4)c3n2)c1 [I-214, (R)-5-(2-(2,5-difluorophenyl)pyrrolidin-1-yl)-3-(4-(5-(oxetan-3-yloxy)pyridin-3-yl)-1H-pyrazol-1-yl)pyrazolo[1,5-a]pyrimidine] | < 10 nM
14 | NC(=O)c1cnn(-c2cnn3ccc(N4CCC[C@@H]4c4cc(F)ccc4F)nc23)c1 [I-173, (R)-1-(5-(2-(2,5-difluorophenyl)pyrrolidin-1-yl)pyrazolo[1,5-a]pyrimidin-3-yl)-1H-pyrazole-4-carboxamide] | < 10 nM
15 | Cc1cnn(-c2cnn3ccc(N4CCC[C@@H]4c4cc(F)ccc4F)nc23)c1 [I-148] | < 10 nM
16 | Fc1ccc(F)c([C@H]2CCCN2c2ccn3ncc(-n4cc(-c5ccncc5)cn4)c3n2)c1 [I-160] | < 10 nM
17 | Cn1ccc(-c2cnn(-c3cnn4ccc(N5CCC[C@@H]5c5cc(F)ccc5F)nc34)c2)cc1=O [I-165] | < 10 nM

Row | Compound | IC50
18 | COc1ccc(-c2cnn(-c3cnn4ccc(N5CCC[C@@H]5c5cc(F)ccc5F)nc34)c2)cn1 [I-200] | < 10 nM
19 | Fc1ccc(F)c([C@H]2CCCN2c2ccn3ncc(-n4cc(OC5COC5)cn4)c3n2)c1 [I-179] | < 10 nM
20 | COc1ccc(F)c([C@H]2CCCN2c2ccn3ncc(-n4cc(C)cn4)c3n2)n1 [I-216, (R)-5-(2-(3-fluoro-6-methoxypyridin-2-yl)pyrrolidin-1-yl)-3-(4-methyl-1H-pyrazoI-1-yl)pyrazolo[1,5-a]pyrimidine] | < 10 nM
21 | COc1cc(C)n(-c2cnn3ccc(N4CCC[C@@H]4c4cc(F)ccc4F)nc23)n1 [I-167] | > 500 nM
22 | Fc1ccc(F)c([C@H]2CCCN2c2ccn3ncc(-n4cc(-c5cncnc5)cn4)c3n2)c1 [I-163] | < 10 nM
23 | Fc1ccc(F)c([C@H]2CCCN2c2ccn3ncc(-n4cc(-c5ccoc5)cn4)c3n2)c1 [I-189] | < 10 nM
24 | Fc1ccc(F)c([C@H]2CCCN2c2ccn3ncc(-n4cc(-c5ccsc5)cn4)c3n2)c1 [I-162] | < 10 nM
25 | COc1cnn(-c2cnn3ccc(N4CCC[C@@H]4c4cc(F)ccc4F)nc23)c1 [I-172] | < 10 nM
26 | Fc1cncc(-c2cnn(-c3cnn4ccc(N5CCC[C@@H]5c5cc(F)ccc5F)nc34)c2)c1 [I-190] | < 10 nM
27 | OC1CCN(c2cnn(-c3cnn4ccc(N5CCC[C@@H]5c5cc(F)ccc5F)nc34)c2)C1 (stereo partly shown) [I-208] | < 10 nM
28 | Fc1ccc(F)c([C@H]2CCCN2c2ccn3ncc(-n4cc(C5=COCC5)cn4)c3n2)c1 [I-212] | < 10 nM
29 | Fc1ccc(F)c([C@H]2CCCN2c2ccn3ncc(-n4cc(C5=CCOC5)cn4)c3n2)c1 [I-188] | < 10 nM
30 | Cc1cnn(-c2cnn3ccc(N[C@H](C)c4ccccc4)nc23)c1 [I-196] | < 10 nM
31 | OCc1cnn(-c2cnn3ccc(N4CCC[C@@H]4c4cc(F)ccc4F)nc23)c1 [I-155] | < 10 nM
32 | CNc1ccc(F)c([C@H]2CCCN2c2ccn3ncc(-n4cc(C)cn4)c3n2)n1 [I-218] | < 10 nM
33 | Fc1ccc(F)c([C@H]2CCCN2c2ccn3ncc(-n4cc(-c5cn[nH]c5)cn4)c3n2)c1 [I-171] | < 10 nM
34 | Cc1noc(C)c1-c1cnn(-c2cnn3ccc(N4CCC[C@@H]4c4cc(F)ccc4F)nc23)c1 [I-157, (R)-4-(1-(5-(2-(2,5-difluorophenyl)pyrrolidin˜yl)pyrazolo[,5-a]pyrimidin-3-yl)-1H-pyrazol-4-yl)-3,5-dimethylisoxazole] | < 10 nM
